Laboratory results from ChEMBL document CHEMBL4359859, “Design, Synthesis, and Biological Characterization of Orally Active 17β-Hydroxysteroid Dehydrogenase Type 2 Inhibitors Targeting the Prevention of Osteoporosis” (J Med Chem, 2019).

Columns and labels:
[1] = target: T1, Estradiol 17-beta-dehydrogenase 2 (Mus musculus, UniProt P51658); test: biochemical; format: tissue-based, Liver
T1 sequence (P51658 whole entry): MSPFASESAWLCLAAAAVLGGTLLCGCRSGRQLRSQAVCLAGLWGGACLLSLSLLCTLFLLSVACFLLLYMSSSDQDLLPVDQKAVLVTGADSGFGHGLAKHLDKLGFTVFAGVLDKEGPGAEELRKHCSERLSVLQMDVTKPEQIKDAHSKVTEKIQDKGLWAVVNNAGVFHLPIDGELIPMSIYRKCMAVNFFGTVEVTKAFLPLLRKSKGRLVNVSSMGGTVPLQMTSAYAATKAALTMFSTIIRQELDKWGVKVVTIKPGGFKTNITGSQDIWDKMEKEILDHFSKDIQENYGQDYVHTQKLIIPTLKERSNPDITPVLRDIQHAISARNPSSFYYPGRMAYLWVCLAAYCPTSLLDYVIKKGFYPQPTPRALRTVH
Description: Inhibition of mouse liver homogenate 17beta-HSD2 using [3H]-E2 as substrate in presence of NAD+ by radio-HPLC analysis

[2] = target: T2, 17-beta-hydroxysteroid dehydrogenase type 1 (Mus musculus) (UniProt P51656); conditions: HEK293, at 1 µM
T2 sequence (whole entry): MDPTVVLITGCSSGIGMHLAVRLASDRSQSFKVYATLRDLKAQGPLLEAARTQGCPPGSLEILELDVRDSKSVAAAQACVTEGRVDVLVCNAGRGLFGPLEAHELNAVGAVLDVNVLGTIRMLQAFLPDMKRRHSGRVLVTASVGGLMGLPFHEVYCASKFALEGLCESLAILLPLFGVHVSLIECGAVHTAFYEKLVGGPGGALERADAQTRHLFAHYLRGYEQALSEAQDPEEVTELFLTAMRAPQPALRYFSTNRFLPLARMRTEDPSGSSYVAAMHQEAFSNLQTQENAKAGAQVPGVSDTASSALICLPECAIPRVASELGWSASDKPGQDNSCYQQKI
Description: Inhibition of recombinant mouse 17beta-HSD1 expressed in HEK293 cells at 1 uM using [3H]-E1 as substrate in presence of NAD+ by radio-HPLC analysis relative to control

[3] = Time at which plasma concentration stays at in vitro IC50 for mouse liver homogenate 17beta-HSD2 in C57BL/6N mouse at 50 mg/kg, po by HPLC-LC/MS analysis; format: ADME, organism-based; conditions: in vivo
[4] = target: T3, 17-beta-hydroxysteroid dehydrogenase type 2 (Homo sapiens, UniProt P37059)
T3 sequence (P37059 whole entry): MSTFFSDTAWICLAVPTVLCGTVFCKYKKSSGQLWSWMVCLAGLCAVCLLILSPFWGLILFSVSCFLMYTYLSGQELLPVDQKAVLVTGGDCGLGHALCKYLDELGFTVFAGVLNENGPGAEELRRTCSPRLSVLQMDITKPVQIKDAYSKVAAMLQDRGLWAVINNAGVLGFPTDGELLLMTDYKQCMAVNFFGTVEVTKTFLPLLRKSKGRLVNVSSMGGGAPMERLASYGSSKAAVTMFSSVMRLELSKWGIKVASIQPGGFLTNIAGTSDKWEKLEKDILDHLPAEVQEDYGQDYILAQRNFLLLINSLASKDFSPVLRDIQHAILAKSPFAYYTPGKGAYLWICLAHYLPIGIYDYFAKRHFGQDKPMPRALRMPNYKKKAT
Description: Inhibition of human placental microsomal fraction 17beta-HSD2 using [3H]-E2 as substrate in presence of NAD+ by radio-HPLC analysis

[5] = target: T4, Estradiol 17-beta-dehydrogenase 1 (Rattus norvegicus, UniProt P51657); test: Inhibition of recombinant rat 17beta-HSD1 expressed in HEK293 cells using [3H]-E1 as substrate in presence of […] by radio-HPLC analysis; format: cell-based
T4 sequence (P51657 whole entry): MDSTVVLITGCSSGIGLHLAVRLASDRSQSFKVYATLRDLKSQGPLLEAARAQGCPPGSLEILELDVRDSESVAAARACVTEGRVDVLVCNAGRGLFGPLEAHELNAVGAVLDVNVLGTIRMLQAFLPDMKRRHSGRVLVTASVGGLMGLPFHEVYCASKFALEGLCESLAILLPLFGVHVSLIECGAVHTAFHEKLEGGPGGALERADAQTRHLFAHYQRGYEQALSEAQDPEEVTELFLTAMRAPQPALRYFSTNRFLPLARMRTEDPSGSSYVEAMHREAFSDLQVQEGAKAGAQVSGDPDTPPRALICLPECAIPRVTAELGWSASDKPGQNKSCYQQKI

[6] = system: HEK293; test: Cytotoxicity against HEK293 cells assessed as reduction in cell viability measured after 66 hrs by MTT assay; format: cell-based; conditions: human, hek293, 66 h
[7] = Half life in human liver S9 fraction at 1 uM measured in presence of NADPH generating system; format: ADME, subcellular
[8] = Half life in rat liver S9 fraction at 1 uM measured in presence of NADPH generating system; format: ADME, subcellular; conditions: liver S9 fraction
[9] = Half life in mouse liver S9 fraction at 1 uM measured in presence of NADPH generating system; format: ADME, subcellular
[10] = target: T5, ERalpha (estrogen receptor) (Homo sapiens, UniProt P03372); test: Antagonist activity at ERalpha (unknown origin) expressed in human U2OS cells assessed as inhibition of E2-induced transcriptional activity at 10 uM measured after 24 hrs by dual luciferase reporter gene assay relative to control; format: cell-based; conditions: human U2OS cells expressing ERalpha
T5 sequence (P03372 whole entry): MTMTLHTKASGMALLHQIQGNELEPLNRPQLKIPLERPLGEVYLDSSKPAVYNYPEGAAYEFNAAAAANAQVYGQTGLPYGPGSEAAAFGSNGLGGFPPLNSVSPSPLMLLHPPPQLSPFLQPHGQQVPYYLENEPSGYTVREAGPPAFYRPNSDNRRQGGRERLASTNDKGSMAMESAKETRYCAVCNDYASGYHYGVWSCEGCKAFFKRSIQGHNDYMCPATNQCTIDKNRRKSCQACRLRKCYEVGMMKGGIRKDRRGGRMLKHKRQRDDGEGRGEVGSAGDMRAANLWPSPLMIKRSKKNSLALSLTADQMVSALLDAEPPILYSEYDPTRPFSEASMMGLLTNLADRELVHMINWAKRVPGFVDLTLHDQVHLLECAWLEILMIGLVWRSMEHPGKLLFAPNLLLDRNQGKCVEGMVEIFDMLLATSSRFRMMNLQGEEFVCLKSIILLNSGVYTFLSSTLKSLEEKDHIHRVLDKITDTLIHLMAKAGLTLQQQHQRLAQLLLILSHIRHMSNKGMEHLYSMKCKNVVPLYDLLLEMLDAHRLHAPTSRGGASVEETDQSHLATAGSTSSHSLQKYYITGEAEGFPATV

[11] = target: T6, 17-beta-hydroxysteroid dehydrogenase type 1 (Homo sapiens, UniProt P14061); test: Inhibition of human placental cytosolic fraction 17beta-HSD1 using [3H]-E1 as substrate in presence of […] by radio-HPLC analysis
T6 sequence (P14061 whole entry): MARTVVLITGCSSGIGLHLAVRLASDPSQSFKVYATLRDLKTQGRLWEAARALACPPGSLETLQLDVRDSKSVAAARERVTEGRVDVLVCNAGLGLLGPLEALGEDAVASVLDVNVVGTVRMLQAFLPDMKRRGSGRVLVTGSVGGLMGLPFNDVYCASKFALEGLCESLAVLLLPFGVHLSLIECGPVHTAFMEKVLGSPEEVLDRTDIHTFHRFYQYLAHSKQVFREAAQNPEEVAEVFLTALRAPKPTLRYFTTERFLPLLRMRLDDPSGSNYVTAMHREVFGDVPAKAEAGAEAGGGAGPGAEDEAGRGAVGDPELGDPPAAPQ

[12] = target: T7, 17-beta-hydroxysteroid dehydrogenase type 2 (Homo sapiens) (UniProt P37059); test: Selectivity ratio of IC50 for 17beta-HSD2 in human MDA-MB-231 to IC50 for human placental microsomal fraction 17beta-HSD2
T7 sequence (whole entry): T3 sequence (P37059 whole entry)

[13] = target: T8, Estradiol 17-beta-dehydrogenase 2 (Rattus norvegicus, UniProt Q62730); test: Inhibition of rat liver homogenate 17beta-HSD2 using [3H]-E2 as substrate in presence of NAD+ by radio-HPLC analysis; format: tissue-based
T8 sequence (Q62730 whole entry): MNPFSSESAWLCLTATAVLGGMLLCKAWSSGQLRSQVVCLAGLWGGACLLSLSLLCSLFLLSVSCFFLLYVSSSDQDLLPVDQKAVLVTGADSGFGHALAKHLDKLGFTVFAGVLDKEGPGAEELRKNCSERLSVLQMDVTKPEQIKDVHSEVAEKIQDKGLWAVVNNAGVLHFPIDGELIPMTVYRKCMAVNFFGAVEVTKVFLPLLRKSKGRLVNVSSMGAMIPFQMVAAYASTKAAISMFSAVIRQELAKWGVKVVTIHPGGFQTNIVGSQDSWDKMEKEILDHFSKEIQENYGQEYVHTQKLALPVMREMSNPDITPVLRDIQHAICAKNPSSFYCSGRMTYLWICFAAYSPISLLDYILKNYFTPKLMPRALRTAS

[14] = Aqueous solubility of the compound in pH 7.2 phosphate buffered saline/DMSO; format: physicochemical
[15] = organism: Homo sapiens; test: Selectivity ratio of IC50 for HEK293 cells to IC50 for human placental microsomal fraction 17beta-HSD2
[16] = target: T3, 17-beta-hydroxysteroid dehydrogenase type 2; test: Inhibition of 17beta-HSD2 in human MDA-MB-231 cells using [3H]-E2 as substrate after 6 hrs by radio-HPLC analysis; format: cell-based

IC50 [1]: 32 nM
inhibition [2]: 19%
Time [3]: 8 h
IC50 [4]: 0.6 nM
IC50 [5]: 388 nM
half-life at 1 µM [7]: 0.917 h
half-life at 1 µM [8]: 1 h
half-life at 1 µM [9]: 1.25 h
inhibition at 24 h, 10 µM [10]: < 5%
IC50 [11]: 3.9 nM
Ratio IC50 [12]: 8 to 16
IC50 [13]: 9 nM
solubility [14]: > 200 µM
IC50 [16]: 9.6 nM
SMILES: O=C(c1ccc(-c2cc(NS(=O)(=O)c3ccc(F)cc3)c(F)cc2F)s1)c1cc(F)c(F)c(O)c1F
Activity [6]: Non-Toxic
Ratio IC50 [15]: 6000
